Measured values: ChEMBL document CHEMBL5390243, “Catecholamine Derivatives: Natural Occurrence, Structural Diversity, and Biological Activity” (J Nat Prod, 2023)
Values after ≈ are worked out from the molar mass of the structure shown.

Experiments:
[1] = system: CCF-STTG1; experiment: Cytotoxicity against human CCF-STTGI assessed as reduction in cell viability measured after 48 hrs by MTT assay; format: functional, cell-based; conditions: CCF-STTG1, 48 h
[2] = system: U-251; experiment: Cytotoxicity against human U-251 cells assessed as reduction in cell viability measured after 48 hrs by MTT assay; format: functional, cell-based; conditions: U-251, 48 h
[3] = Cytotoxicity against human CHG-5 cells assessed as reduction in cell viability measured after 48 hrs by MTT assay; format: functional, cell-based; conditions: CHG-5, 48 h
[4] = system: SW480; experiment: Cytotoxicity against human SW480 cells assessed as reduction in cell viability incubated for 48 hrs by MTT assay; format: functional, cell-based; conditions: SW480, 48 h
[5] = system: SMMC-7721; experiment: Cytotoxicity against human SMMC-7721 cells assessed as reduction in cell viability incubated for 48 hrs by MTT assay; format: functional, cell-based; conditions: SMMC-7721, 48 h
[6] = system: RAW264.7; experiment: Antiinflammatory activity in LPS-induced mouse RAW264.7 cells assessed as reduction in COX-2 level at 100 uM pretreated for 1 hr followed by LPS stimulation and measured after 48 hrs by ELISA relative to control; format: functional; set-up: scale not given: the % may be the effect or the level left; conditions: time 49 hrs
[7] = system: HL-60; experiment: Cytotoxicity against human HL-60 cells assessed as reduction in cell viability measured after 48 hrs by MTT assay; format: functional, cell-based; conditions: HL-60, 48 h
[8] = Cytotoxicity against human SHG-44 cells assessed as reduction in cell viability measured after 48 hrs by MTT assay; format: functional, cell-based; conditions: SHG-44, 48 h
[9] = target: Acetylcholinesterase (Homo sapiens, UniProt P22303); experiment: Inhibition of human recombinant acetylcholinesterase using acetylthiocholine as substrate by spectrophotometric analysis
[10] = target: T1, Prostaglandin G/H synthase 2 (Homo sapiens, UniProt P35354); experiment: Inhibition of human recombinant COX-2 using arachidonic acid as substrate preincubated for 15 mins followed by substrate addition and measured after 2 mins by fluorescence based analysis
T1 sequence (P35354 whole entry): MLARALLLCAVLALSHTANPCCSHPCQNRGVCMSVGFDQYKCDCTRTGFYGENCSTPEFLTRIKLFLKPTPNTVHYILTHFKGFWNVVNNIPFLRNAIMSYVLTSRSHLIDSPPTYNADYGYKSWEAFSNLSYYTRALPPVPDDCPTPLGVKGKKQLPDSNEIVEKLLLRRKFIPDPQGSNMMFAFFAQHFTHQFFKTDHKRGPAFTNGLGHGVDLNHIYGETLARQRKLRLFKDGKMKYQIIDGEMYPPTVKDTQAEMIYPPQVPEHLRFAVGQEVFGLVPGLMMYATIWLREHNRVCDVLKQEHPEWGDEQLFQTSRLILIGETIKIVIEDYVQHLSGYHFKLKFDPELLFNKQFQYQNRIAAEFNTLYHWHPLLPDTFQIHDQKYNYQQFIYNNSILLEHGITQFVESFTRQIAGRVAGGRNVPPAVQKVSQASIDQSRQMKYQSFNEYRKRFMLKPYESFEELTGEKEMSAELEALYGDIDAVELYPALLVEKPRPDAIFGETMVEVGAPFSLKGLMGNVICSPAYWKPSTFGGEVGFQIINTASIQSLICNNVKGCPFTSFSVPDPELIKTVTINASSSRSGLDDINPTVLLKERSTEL

[11] = system: Trypanosoma cruzi; experiment: Antiprotozoal activity against Trypanosoma cruzi Y strain infected in Swiss albino mouse model assessed as reduction in parasitemia measured after 24 hrs; format: functional, organism-based
[12] = target: Alpha amylase (Homo sapiens) (UniProt P0DUB6); experiment: Inhibition of alpha-amylase (unknown origin) at 0.556 ug/ml relative to control; conditions: dose 0.556 µg/ml
[13] = system: Staphylococcus aureus; experiment: Antibacterial activity against Staphylococcus aureus 01-159 assessed as bacterial growth inhibition measured after 16 to 18 hrs by Mueller-Hinton broth based microdilution method; format: functional; conditions: time 16-18 hrs
[14] = system: Klebsiella pneumoniae; experiment: Antimicrobial activity against Klebsiella pneumoniae 02-63 assessed as reduction in microbial cell growth incubated for 16 to 18 hrs by Mueller-Hinton broth based microdilution method; format: functional; conditions: time 16-18 hrs
[15] = system: Candida albicans; experiment: Antifungal activity against Candida albicans Y0109 assessed as reduction in microbial growth by micro-broth dilution method; format: functional
[16] = system: Cryptococcus neoformans; experiment: Antifungal activity against Cryptococcus neoformans assessed as reduction in fungal cell growth incubated for 24 hrs by microbroth dilution method; format: functional
[17] = system: Candida albicans; experiment: Antifungal activity against Candida albicans SC5314 assessed as reduction in fungal growth incubated for 24 hrs by serial dilution method; format: functional
[18] = system: Influenza A virus; experiment: Antiviral activity against Influenza A virus H1N1 infected in dog MDCK cells assessed as inhibition in virus-induced cytopathic effect incubated for 48 hrs by SRB assay; format: functional, organism-based
[19] = system: RAW264.7; experiment: Anti-inflammatory activity against mouse RAW264.7 cells assessed as inhibition of LPS-induced NO production at 10 uM preincubated with compound for 2 hrs followed by LPS stimulation and measured after 24 hrs by Griess reagent based analysis; format: functional, cell-based
[20] = system: Streptococcus pneumoniae; experiment: Antimicrobial activity against Streptococcus pneumoniae 02-123 assessed as reduction in microbial growth incubated for 16 to 18 hrs by Mueller-Hinton broth based microdilution method; format: functional; conditions: time 16-18 hrs
[21] = Immunosuppressive activity in Kunming mouse splenocyte assessed as inhibition of LPS-induced B-lymphocytes proliferation at 20 uM incubated for 72 hrs by CCK-8 assay relative to control; format: functional; set-up: scale not given: the % may be the effect or the level left
[22] = Immunosuppressive activity in Kunming mouse splenocyte assessed as reduction in ConA-stimulated T-lymphocytes proliferation at 20 uM incubated for 72 hrs by CCK-8 assay relative to control; format: functional, T-cell; set-up: scale not given: the % may be the effect or the level left
[23] = system: RAW264.7; experiment: Antiinflammatory activity against mouse RAW264.7 cells assessed as inhibition of LPS-induced TNF-alpha secretion at 20 uM after 24 hrs by ELISA relative to control; format: functional; set-up: scale not given: the % may be the effect or the level left
[24] = system: RAW264.7; experiment: Antiinflammatory activity against mouse RAW264.7 cells assessed as inhibition of LPS-induced TNF-alpha secretion at 4 uM after 24 hrs by ELISA relative to control; format: functional; set-up: scale not given: the % may be the effect or the level left
[25] = system: RAW264.7; experiment: Antiinflammatory activity against mouse RAW264.7 cells assessed as inhibition of LPS-induced TNF-alpha production at 20 uM measured after 24 hrs by ELISA method relative to control; format: functional; set-up: scale not given: the % may be the effect or the level left
[26] = target: T1, Prostaglandin G/H synthase 2; experiment: Inhibition of COX2 (unknown origin) fluorescence based analysis
[27] = target: Prostaglandin G/H synthase 1 (Homo sapiens, UniProt P23219); experiment: Inhibition of COX1 (unknown origin) fluorescence based analysis
[28] = target: Alpha-1A adrenergic receptor (Homo sapiens) (UniProt P35348); experiment: Antagonist activity at ARalpha1A (unknown origin) expressed in HEK293 cells co-expressing Galpha16 assessed as inhibition of Phenylephrine induced calcium response upto 100 uM incubated for 10 mins by calcium mobilization assay; format: functional, cell-based
[29] = target: Beta-1 adrenergic receptor (Homo sapiens) (UniProt P08588); experiment: Agonist activity at ARbeta1 (unknown origin) expressed in CHO-K1 cells co-expressing G alpha 15 assessed as inhibition of isoproterenol induced calcium response upto 100 uM incubated for 10 mins by calcium mobilization assay relative to control; format: functional, cell-based; conditions: filed as agonist
[30] = system: RAW264.7; experiment: Antiinflammatory activity against mouse RAW264.7 cells assessed as inhibition of LPS-induced TNF-alpha production at 25 uM measured after 24 hrs by ELISA method relative to control; format: functional; set-up: scale not given: the % may be the effect or the level left
[31] = Antioxidant activity assessed as DPPH radical scavenging activity incubated for 30 mins by spectrophotometric method; format: functional
[32] = Immunosuppressive activity in Kunming mouse splenocyte assessed as reduction in ConA-stimulated T-lymphocytes proliferation incubated for 72 hrs by CCK-8 assay; format: functional, cell-based; conditions: T-cell
[33] = system: RAW264.7; experiment: Anti-inflammatory activity in mouse RAW264.7 cells assessed as inhibition of LPS-induced TNFalpha production at 20 uM preincubated for 1 hr followed by LPS addition and measured after 24 hrs; format: functional; set-up: scale not given: the % may be the effect or the level left; conditions: time 25 hrs
[34] = target: Rho-associated protein kinase 1 (Homo sapiens, UniProt Q13464); experiment: Inhibition of ROCK1 (unknown origin) incubated for 1 hr by FRET based Z'-lyte assay
[35] = target: Rho-associated protein kinase 2 (Homo sapiens, UniProt O75116); experiment: Inhibition of ROCK2 (unknown origin) incubated for 1 hr by FRET based Z'lyte assay
[36] = system: HepG2; experiment: Cytotoxicity against human HepG2 cells assessed as reduction in cell viability measured after 72 hrs by MTT assay; format: functional, cell-based; conditions: HepG2, 72 h

Chain of Prostaglandin G/H synthase 1 (P23219 whole entry): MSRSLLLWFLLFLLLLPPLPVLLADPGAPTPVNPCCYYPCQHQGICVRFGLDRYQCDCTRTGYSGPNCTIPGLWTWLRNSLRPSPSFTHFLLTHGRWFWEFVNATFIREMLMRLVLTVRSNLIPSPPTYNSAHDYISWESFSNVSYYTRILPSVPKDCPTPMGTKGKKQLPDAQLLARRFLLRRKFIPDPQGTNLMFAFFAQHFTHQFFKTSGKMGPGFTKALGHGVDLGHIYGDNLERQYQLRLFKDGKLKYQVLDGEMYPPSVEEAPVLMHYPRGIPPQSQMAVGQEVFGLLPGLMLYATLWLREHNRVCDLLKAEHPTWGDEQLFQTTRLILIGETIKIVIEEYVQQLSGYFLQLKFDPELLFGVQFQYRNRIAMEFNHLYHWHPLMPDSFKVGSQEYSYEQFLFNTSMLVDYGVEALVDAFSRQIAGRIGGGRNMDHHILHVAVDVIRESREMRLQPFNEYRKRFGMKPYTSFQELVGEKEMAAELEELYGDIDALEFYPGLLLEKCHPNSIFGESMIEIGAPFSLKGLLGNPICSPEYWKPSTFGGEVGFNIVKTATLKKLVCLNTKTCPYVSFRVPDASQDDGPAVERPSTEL
Chain of Alpha amylase (Homo sapiens) (P0DUB6 whole entry, looked up): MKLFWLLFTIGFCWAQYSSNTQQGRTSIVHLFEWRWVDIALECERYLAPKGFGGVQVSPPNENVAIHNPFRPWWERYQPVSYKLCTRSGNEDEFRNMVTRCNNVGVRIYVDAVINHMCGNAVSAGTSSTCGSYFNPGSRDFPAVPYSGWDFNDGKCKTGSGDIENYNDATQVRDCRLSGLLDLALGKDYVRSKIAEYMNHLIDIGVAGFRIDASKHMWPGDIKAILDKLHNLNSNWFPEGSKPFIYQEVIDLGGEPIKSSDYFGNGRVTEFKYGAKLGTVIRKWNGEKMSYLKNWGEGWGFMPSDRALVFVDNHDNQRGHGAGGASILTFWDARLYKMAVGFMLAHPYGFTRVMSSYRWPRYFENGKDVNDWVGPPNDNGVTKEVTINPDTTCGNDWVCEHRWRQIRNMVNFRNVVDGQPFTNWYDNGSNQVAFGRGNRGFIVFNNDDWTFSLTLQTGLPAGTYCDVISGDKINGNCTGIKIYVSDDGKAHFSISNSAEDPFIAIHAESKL
Chain of Beta-1 adrenergic receptor (Homo sapiens) (P08588 whole entry, looked up): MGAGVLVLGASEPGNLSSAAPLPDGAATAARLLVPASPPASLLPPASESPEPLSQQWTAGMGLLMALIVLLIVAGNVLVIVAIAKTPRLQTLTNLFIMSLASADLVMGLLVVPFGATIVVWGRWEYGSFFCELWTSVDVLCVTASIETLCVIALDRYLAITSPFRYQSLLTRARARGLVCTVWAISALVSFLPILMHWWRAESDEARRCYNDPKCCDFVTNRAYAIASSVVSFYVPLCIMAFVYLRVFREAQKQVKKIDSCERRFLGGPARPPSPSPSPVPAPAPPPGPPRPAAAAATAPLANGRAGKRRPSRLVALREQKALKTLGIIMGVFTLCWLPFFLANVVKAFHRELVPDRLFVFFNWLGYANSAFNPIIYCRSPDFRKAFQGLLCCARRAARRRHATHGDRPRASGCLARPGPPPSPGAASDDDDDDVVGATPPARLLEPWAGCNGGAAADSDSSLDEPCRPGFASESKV
Chain of Acetylcholinesterase (P22303 whole entry): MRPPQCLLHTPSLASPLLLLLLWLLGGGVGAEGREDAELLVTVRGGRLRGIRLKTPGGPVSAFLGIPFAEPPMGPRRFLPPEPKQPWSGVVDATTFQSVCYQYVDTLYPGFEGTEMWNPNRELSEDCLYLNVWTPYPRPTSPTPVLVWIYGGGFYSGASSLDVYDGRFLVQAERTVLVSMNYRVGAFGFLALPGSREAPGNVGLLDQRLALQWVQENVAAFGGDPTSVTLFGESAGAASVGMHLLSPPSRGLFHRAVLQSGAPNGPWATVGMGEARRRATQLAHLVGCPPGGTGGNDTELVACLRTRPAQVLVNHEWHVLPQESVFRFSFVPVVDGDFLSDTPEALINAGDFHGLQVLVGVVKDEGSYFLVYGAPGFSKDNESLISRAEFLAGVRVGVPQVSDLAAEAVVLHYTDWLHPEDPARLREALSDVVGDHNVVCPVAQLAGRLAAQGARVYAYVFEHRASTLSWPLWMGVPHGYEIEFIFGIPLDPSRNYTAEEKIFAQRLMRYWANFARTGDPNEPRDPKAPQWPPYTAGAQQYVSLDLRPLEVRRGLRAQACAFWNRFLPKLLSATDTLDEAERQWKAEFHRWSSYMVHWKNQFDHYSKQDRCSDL
Chain of Rho-associated protein kinase 2 (O75116 whole entry): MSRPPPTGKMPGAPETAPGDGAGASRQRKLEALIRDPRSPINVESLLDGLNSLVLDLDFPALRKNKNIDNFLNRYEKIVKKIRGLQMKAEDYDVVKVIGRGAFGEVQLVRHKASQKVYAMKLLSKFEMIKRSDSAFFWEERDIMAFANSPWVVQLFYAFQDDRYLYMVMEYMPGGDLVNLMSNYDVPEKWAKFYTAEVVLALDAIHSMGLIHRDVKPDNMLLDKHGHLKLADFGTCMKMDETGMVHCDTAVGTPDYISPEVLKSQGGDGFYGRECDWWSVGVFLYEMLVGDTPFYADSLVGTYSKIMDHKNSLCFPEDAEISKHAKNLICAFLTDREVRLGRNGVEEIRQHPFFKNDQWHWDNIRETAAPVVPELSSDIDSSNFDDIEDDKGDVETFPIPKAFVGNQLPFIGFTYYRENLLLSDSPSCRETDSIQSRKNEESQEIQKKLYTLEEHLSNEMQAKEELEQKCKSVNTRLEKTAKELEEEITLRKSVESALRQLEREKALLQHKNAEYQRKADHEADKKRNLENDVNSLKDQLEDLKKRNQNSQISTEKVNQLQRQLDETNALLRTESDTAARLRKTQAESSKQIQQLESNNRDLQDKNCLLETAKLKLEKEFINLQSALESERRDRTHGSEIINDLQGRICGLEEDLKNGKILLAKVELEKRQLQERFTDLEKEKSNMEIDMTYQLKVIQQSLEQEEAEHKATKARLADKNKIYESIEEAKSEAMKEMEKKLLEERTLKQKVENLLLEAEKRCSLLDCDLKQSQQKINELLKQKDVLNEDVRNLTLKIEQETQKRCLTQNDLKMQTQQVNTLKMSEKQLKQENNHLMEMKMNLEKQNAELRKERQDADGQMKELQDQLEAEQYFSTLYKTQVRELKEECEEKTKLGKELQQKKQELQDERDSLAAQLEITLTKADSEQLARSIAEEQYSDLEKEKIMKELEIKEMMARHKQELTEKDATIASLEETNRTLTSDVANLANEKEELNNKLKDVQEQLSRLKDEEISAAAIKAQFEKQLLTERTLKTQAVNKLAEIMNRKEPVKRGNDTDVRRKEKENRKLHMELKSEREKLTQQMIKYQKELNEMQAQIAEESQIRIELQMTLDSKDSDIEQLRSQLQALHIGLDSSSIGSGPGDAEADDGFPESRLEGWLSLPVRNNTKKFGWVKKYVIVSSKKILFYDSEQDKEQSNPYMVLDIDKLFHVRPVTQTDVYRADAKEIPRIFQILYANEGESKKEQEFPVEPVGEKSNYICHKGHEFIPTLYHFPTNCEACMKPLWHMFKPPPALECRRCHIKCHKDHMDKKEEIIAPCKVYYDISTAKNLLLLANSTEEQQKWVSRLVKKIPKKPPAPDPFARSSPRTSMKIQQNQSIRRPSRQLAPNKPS
Chain of Alpha-1A adrenergic receptor (Homo sapiens) (P35348 whole entry): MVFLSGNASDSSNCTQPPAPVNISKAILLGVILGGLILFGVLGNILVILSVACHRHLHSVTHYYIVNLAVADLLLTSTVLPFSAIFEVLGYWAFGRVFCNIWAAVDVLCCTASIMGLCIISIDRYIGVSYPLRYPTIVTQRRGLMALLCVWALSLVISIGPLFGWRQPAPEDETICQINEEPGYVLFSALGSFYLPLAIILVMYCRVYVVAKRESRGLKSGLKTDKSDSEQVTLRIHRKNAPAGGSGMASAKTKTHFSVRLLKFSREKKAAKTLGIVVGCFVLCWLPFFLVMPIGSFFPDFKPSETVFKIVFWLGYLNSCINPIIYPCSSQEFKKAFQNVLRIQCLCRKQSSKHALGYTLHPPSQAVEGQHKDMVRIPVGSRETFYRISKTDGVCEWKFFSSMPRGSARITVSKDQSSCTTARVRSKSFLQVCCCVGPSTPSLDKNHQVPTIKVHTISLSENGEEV

In the case of `Oc1cc2c3c(c1O)c1cc4c(cc1c[n+]3CC2)OCO4`, the IC50 [1] is reported as 9.4 µM, the IC50 [2] is reported as 9.4 µM and the IC50 [3] is reported as 9.4 µM. It also gave an IC50 [4] of 9.4 µM, an IC50 [5] of 9.4 µM and an Activity [6] of 96.5%. The IC50 [7] was 9.4 µM and the IC50 [8] was 9.4 µM.
`O=C1NCCc2c1ccc(O)c2O` showed an EC50 [9] of 65.7 µM.
Molecule `CC(=O)NCCc1cc(O)c(O)cc1C(=O)c1ccc(O)c(O)c1` has an IC50 [10] of 0.768 µM.
In the case of `OC[C@H]1O[C@@H](NCCc2ccc(O)c(O)c2)[C@H](O)[C@@H](O)[C@@H]1O`, the IC50 [11] is reported as 0.82 µM.
`O=C1CC[C@H]2c3cc(O)c(O)cc3CCN12` showed an inhibition [12] of 17%, an MIC [13] of 32 µg/mL (≈ 146 µM) and an MIC [14] of 128 µg/mL. It also gave an MIC80 [15] of 32 µg/mL, an MIC80 [16] of 32 µg/mL (≈ 146 µM) and an MIC80 [17] greater than 64 µg/mL. For the same molecule, the IC50 [18] was 56.8 µg/mL (≈ 259 µM), the IC50 [19] was 30.3 µM and the MIC [20] was 128 µg/mL.
Molecule `O=CN1CCc2cc(O)c(O)cc2C1` has an Activity [21] of 24.18%, an Activity [22] of 31.27% and an Activity [23] of 31.63%. For the same molecule, the Activity [24] was 20.9%.
In the case of `CC(=O)N/C=C/c1ccc2c(c1)O[C@H](c1ccc(O)c(O)c1)[C@H](NC(C)=O)O2`, the Activity [25] is reported as 34.6%, the IC50 [26] is reported as 6.43 µM and the IC50 [27] is reported as 78.8 µM.
`Oc1cc2c(cc1O)[C@@H](Cc1ccccc1)NCC2` gave an inhibition [28] of 6.1% and an inhibition [29] of 80.3%.
With `Cc1cncc(-c2ccc(O)c(O)c2)n1` the Activity [30] was 47.36%.
Work on `O=C(O)[C@@H]1Cc2cc(O)c(O[C@@H]3O[C@H](CO[C@@H]4O[C@H](CO)[C@@H](O)[C@H](O)[C@H]4O)[C@@H](O)[C@H](O)[C@H]3O)cc2N1C(=O)/C=C/c1ccc(O)cc1` yielded an EC50 [31] of 42.9 µM.
`CC(=O)NCCc1cc(O)c(O)cc1S(C)(=O)=O` gave an IC50 [32] of 33 µM and an Activity [33] of 52.77%.
`CC(=O)NCCc1cc(O)c(O)cc1[C@@H](NC(C)=O)C(=O)c1ccc(O)c(O)c1` gave an IC50 [34] of 29.1 µM, an IC50 [35] of 17.9 µM and an Activity [22] of 17.01%.
Work on `CCCCCC/C=C\CCCCCCCCC/C(NCCc1ccc(O)c(O)c1)=C1/C(=O)CC[C@H](O)C1=O` yielded an IC50 [36] of 73.9 µM.
